Patent US5529989A (Arizona Board of Regents acting on behalf of Arizona State …, priority 1995, dated 1996)
In brackets after ≈: the same amount, converted by molar mass. Entries after “also recorded” stand apart in the source; their conditions may differ.

Legend:
[1] = stability of the phosphoric acid; assay type: physicochemical; conditions: isolated after hydrogenolysis
[2] = tested on: U.S. National Cancer Institute's (NCI) panel of sixty human cancer cell lines; test: cancer cell growth inhibition, NCI panel of sixty human cancer cell lines; assay type: cell-based
Procedure: (§1) There is no mathematical difference between ED50 and GI50, which are both calculated using the same formula. The only difference is historical usage.
Total Growth Inhibition ("TGI"), is the drug dose needed to yield zero percent growth, i.e., just as many cells at the end of the experiment as were present in the beginning. Whether just as many cells were killed as were produced (steady state), or no growth occurred (total inhibition), cannot be distinguished.
(§2) Each drug is tested at five (5) doses: 100--10--1--0.1--0.01 μg/ml. Percent Growths are calculated for each dose. […] The log of the dose is used during the regression computation.
(§3) At the start of an experiment, cells from the in vitro cell cultures are inoculated into the appropriate tubes or microtiter plates. One set of control tubes/plates is immediately counted to determine the number of cells at the start of the experiment. This is the "baseline count" or "Tzero reading". At the end of the experiment (48 hours later) a second set of control tubes/plates is analyzed to determine the "Control Growth" value. The growth (or death) of cells relative to the initial quantity of cells is used to define the "Percent of Growth".

water solubility = assay type: physicochemical
[3] = tested on: murine P388 lymphocytic leukemia cell line; test: growth inhibition of murine P388 lymphocytic leukemia cell line in vitro; assay type: cell-based
Procedure: as §1, §2, §3

cancer cell = cancer cell growth inhibitory comparison of pancratistatin with its phosphate prodrug; assay type: cell-based; conditions: versus pancratistatin (1)
Procedure: as §1, §2, §3

[4] = tested on: M5074 murine ovary sarcoma; conditions: 6 mg/kg host body weight; from U.S. Pat. No. 4,985,436; cited from earlier work
[5] = tested on: murine P388 lymphocytic leukemia cell line; conditions: from U.S. Pat. No. 4,985,436, cited from earlier work
RNA viruses = conditions: cited from earlier work
[6] = tested on: experimental melanoma and ovary carcinoma; conditions: cited from earlier work
[7] = tested on: M5074 murine ovary sarcoma; conditions: 0.38 to 3.0 mg active reagent/kg host body weight; from U.S. Pat. No. 4,985,436; cited from earlier work
[8] = cited from earlier work
[9] = tested on: murine P388 lymphocytic leukemia; conditions: 0.75-12.5 mg/kg host body weight, from U.S. Pat. No. 4,985,436; cited from earlier work

Structure (SMILES) | stability [1] | direct comparison of phosphate (5) and pancratistatin (1) [2] | solubility (water solubility) | GI50 ([3]; Mus musculus, 48 h, murine P388 lymphocytic leukemia cell line, dose needed to reduce the percent growth to 50%, read-out: ED50 (the source's name)) | ED50 compared with pancratistatin (1) ([3]; murine P388 lymphocytic leukemia, versus pancratistatin (1)) | cancer cell growth inhibition compared with pancratistatin (1) (cancer cell) | cure rate [4] | ED50 ([5]; P388 in vitro cell line, 2880 min) | inhibition of growth of P388 in vitro cell line (in words) [5] | activity against a range of RNA viruses (RNA viruses) | activity against experimental melanoma and ovary carcinoma [6] | life extension [7] | solubility in water (in words) [8] | life extension [9]
CC(=O)O[C@@H]1[C@@H](OC(C)=O)[C@H](OC(C)=O)[C@@H]2c3cc4c(c(OP(=O)(O)O)c3C(=O)N[C@H]2[C@@H]1OC(C)=O)OCO4 [4b, 7-phosphoryl-pancratistatin tetraacetate] | unstable |  |  |  |  |  |  |  |  |  |  |  |  | 
O=C1N[C@H]2[C@H](O)[C@H](O)[C@@H](O)[C@H](O)[C@@H]2c2cc3c(c(OP(=O)(O)O)c21)OCO3 [compound (5), Disodium 7-Phosphoryl-Pancratistatin] |  | comparable results for both compounds | > 230 mg/mL | 0.032 µg/mL | essentially comparable to that found for pancratistatin (1) | same cancer cell growth inhibition as pancratistatin (1); also recorded: very comparable results |  |  |  |  |  |  |  | 
O=C1N[C@H]2[C@H](O)[C@H](O)[C@@H](O)[C@H](O)[C@@H]2c2cc3c(c(O)c21)OCO3 [pancratistatin] |  | comparable results for both compounds |  |  |  |  | 50% | 0.001 µg/mL (≈ 3.07 nM) | markedly inhibited growth | activity against a range of RNA viruses | potent activity | 53% to 84 | at best sparingly soluble in water | 38-106%
